Data taken from article PMC9278656 (Journal of medicinal chemistry, 2021).
Structures can show the parent of a compound that is named as a salt. Where two headings read alike, the source gives them in different places.

Tests used:
Ionophore activity = details: larger number indicates weaker ionophore activity
p53^R175H = assay: Immunofluorescence with conformation-specific antibodies PAB1620/PAB240; format: cell-based
TOV-112D (p53^R175H) = assay: Cell growth inhibition assay; format: cell-based; details: Homo sapiens, TOV112D, 72 h, read-out: EC50 TOV-112D
[1] = cited from earlier work
[2] = system: p53 wild type and p53 null cell lines; assay: Cell kill in p53 wild type and p53 null cell lines; format: cell-based; details: allele selectivity, Suppl. Figure S1
Caco-2 permeability = format: in vitro ADME; details: human
[3] = molecular target: Human Norepinephrine Transporter (Homo sapiens, UniProt P23975); assay: CEREP safety screen, norepinephrine transporter; format: binding; details: 10 μM
Human hERG = Human hERG (Homo sapiens, UniProt Q12809); assay: CEREP safety screen, hERG [3H]-dofetilide; format: binding; details: 10 μM
H1299 cells (p53 null) = assay: Oxidative stress detection, CellROX Green, flow cytometry; format: cell-based; details: 0.75 μM compound, 24 h, relative to ZMC1
[4] = system: MDA-MB-468 (p53^R273H) tumors; assay: Xenograft tumor assay, MDA-MB-468; format: in vivo, nude mice NCr nu/nu; details: non Zn-deficient mutation, Suppl. Figure S2
[5] = system: Rat Sodium Channel site 2; assay: CEREP safety screen, sodium channel site 2; format: binding; details: 10 μM
[6] = NCr nu/nu nude, mouse, in vivo, ip
TOV-112D cells = assay: Combination of C85 with γ-irradiation or etoposide, cell growth inhibition; format: cell-based; details: Homo sapiens, TOV112D, read-out: EC50, C85 only
[7] = Hydrolytic stability in SGF and PBS; format: physicochemical; details: 6 h

Chain of Human hERG (Q12809 whole entry): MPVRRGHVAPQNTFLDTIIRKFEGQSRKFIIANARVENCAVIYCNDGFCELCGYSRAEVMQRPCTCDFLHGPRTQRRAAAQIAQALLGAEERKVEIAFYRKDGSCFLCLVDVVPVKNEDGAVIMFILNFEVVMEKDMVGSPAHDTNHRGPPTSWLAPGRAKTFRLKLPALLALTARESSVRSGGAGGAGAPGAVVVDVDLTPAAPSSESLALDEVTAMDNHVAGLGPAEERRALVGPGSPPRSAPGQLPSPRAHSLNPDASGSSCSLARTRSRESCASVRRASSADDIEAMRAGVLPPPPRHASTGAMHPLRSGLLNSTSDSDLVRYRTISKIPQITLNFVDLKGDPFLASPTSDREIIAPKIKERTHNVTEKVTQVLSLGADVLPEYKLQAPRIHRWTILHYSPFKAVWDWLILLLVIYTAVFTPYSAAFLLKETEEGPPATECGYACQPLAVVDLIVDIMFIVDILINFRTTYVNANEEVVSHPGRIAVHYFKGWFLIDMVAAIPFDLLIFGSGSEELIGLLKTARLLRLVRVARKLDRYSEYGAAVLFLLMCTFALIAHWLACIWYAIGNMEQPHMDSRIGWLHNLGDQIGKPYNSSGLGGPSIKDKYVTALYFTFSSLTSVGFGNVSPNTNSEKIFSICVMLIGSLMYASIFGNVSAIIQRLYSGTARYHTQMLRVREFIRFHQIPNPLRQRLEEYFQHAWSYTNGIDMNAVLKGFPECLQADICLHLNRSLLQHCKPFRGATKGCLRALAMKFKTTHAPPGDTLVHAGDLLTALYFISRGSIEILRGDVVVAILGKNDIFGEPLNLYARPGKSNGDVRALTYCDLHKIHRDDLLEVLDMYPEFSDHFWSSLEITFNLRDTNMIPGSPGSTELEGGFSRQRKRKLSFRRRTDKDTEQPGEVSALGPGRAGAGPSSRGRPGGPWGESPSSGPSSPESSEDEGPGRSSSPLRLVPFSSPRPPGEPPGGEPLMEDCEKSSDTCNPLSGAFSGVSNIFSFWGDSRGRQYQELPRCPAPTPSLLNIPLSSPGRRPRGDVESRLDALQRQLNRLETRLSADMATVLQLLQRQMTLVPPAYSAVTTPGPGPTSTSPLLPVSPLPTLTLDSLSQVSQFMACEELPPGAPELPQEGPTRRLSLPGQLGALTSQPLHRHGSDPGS
Chain of Human Norepinephrine Transporter (P23975 whole entry): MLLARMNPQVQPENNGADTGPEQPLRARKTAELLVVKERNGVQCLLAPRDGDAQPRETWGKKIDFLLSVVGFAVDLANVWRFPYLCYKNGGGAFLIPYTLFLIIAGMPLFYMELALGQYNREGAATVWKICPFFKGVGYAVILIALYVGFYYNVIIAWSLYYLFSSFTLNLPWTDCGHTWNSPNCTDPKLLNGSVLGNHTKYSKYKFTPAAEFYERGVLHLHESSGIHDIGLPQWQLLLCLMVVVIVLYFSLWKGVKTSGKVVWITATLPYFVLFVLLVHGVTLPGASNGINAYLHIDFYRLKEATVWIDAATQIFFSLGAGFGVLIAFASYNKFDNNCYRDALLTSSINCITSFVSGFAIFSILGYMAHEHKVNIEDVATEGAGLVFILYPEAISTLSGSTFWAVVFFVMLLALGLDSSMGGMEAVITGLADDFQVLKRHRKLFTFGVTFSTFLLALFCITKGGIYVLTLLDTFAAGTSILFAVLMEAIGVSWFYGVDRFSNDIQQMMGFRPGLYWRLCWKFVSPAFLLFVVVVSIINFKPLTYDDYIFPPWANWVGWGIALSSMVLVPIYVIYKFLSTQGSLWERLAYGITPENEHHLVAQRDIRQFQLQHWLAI

| SMILES | Ionophore Ji drug/Ji DMSO (Ionophore activity) | Refolding p53^R175H → wild type (p53^R175H) | other results |
| --- | --- | --- | --- |
| CC(C)(C)/C(=N\NC(=S)N1CCC1)c1ccccn1 [A13, (E)-N′-(2,2-Dimethyl-1-(pyridin-2-yl)propylidene)azetidine-1-carbothiohydrazide] | 14.4 -log[mol/m^2s] |  |  |
| CS/C(=N\N=C(/C)c1ccccn1)N1CCC1 [A5, Methyl (Z)-N-((E)-1-(Pyridin-2-yl)ethylidene)azetidine-1-carbohydrazonothioate] | 12.4 -log[mol/m^2s] |  |  |
| C/C(=N\Nc1nc2ccccc2o1)c1cc(OCCN(C)C)ccn1 [C35, (E)-2-((2-(1-(2-(Benzo[d]oxazol-2-yl)hydrazineylidene)ethyl)pyridin-4-yl)oxy)-N,N-dimethylethan-1-amine HCl] |  | YES |  |
| C/C(=N\Nc1nc2ccccc2s1)c1cc(OCCN2CCN(C)CC2)ccn1 [C64, (E)-2-(2-(1-(4-(2-(4-Methylpiperazin-1-yl)ethoxy)pyridin-2-yl)ethylidene)hydrazineyl)benzo[d]thiazole HCl] | 11.6 -log[mol/m^2s] |  |  |
| C/C(=N\NC(=S)N1CCC1)c1ncccc1C [A12, (E)-N′-(1-(3-Methylpyridin-2-yl)ethylidene)azetidine-1-carbothiohydrazide] | 11.6 -log[mol/m^2s] |  | EC50 (TOV-112D (p53^R175H)): 11 nM |
| C/C(=N\NC(=S)N1CCC1)c1ccccc1 [A9, (E)-N′-(1-Phenylethylidene)azetidine-1-carbothiohydrazide] | 11.6 -log[mol/m^2s] |  |  |
| C/C(=N\Nc1nc2ccccc2o1)c1ccccn1 [C2, (E)-2-(2-(1-(Pyridin-2-yl)ethylidene)hydrazinyl)benzo[d]oxazole] | 11.8 -log[mol/m^2s] | induced a wild-type conformational change and YES | Aqueous solubility [1]: low aqueous solubility; Cell kill in p53 wild type and p53 null cell lines [2]: almost no cell kill; Papp at 90 min, 5 μM (Caco-2 permeability): 10.6 ± 0.5 ×10⁻⁶ cm/s |
| C/C(=N\Nc1ccc2ccccc2n1)c1ccccn1 [C22, (E)-2-(2-(1-(Pyridin-2-yl)ethylidene)hydrazineyl)quinoline] | 11.6 -log[mol/m^2s] | YES |  |
| C/C(=N\NC(=S)N(C)C)c1ccccn1 [A1, (E)-N,N-Dimethyl-2-(1-(pyridin-2-yl)ethylidene)hydrazine-1-carbothioamide] | 12.8 -log[mol/m^2s] | YES | Papp at 90 min, 5 μM (Caco-2 permeability): 7.3 ± 0.1 ×10⁻⁶ cm/s |
| C/C(=N\NC(=S)N1CCC1)c1cccc(C)n1 [A11, (E)-N′-(1-(6-Methylpyridin-2-yl)ethylidene)azetidine-1-carbothiohydrazide] | 12.6 -log[mol/m^2s] | YES |  |
| C/C(=N\Nc1nc2ccccc2s1)c1cc(OCCN(C)C)ccn1 [C28, (E)-2-((2-(1-(2-(Benzo[d]thiazol-2-yl)hydrazineylidene)ethyl)pyridin-4-yl)oxy)-N,N-dimethylethan-1-amine HCl] | 11.6 -log[mol/m^2s] | YES | Activity against the norepinephrine transporter, in words [3]: showed activity; hERG inhibition, in words (Human hERG): strong hERG inhibition |
| C/C(=N\Nc1nc2ccccc2n1C)c1ncccn1 [C89, (E)-1-Methyl-2-(2-(1-(pyrimidin-2-yl)ethylidene)hydrazineyl)-1H-benzo[d]imidazole HCl] | 12.0 -log[mol/m^2s] |  | hERG inhibition, in words (Human hERG): strong hERG inhibition |
| C/C(=N\Nc1nc2ccccc2s1)c1ncccn1 [C77, (E)-2-(2-(1-(Pyrimidin-2-yl)ethylidene)hydrazineyl)benzo[d]thiazole AcOH] | 11.8 -log[mol/m^2s] |  | Activity against the norepinephrine transporter, in words [3]: showed activity |
| C/C(=N\Nc1nc2ccccc2s1)c1cc(N(C)C)ccn1 [C21, (E)-2-(1-(2-(Benzo[d]thiazol-2-yl)hydrazineylidene)ethyl)-N,N-dimethylpyridin-4-amine] | 11.6 -log[mol/m^2s] | YES |  |
| C/C(=N\Nc1nc2ccccc2n1CCN(C)C)c1ccccn1 [C27, (E)-N,N-Dimethyl-2-(2-(2-(1-(pyridin-2-yl)ethylidene)hydrazineyl)-1H-benzo[d]imidazol-1-yl)ethan-1-amine HCl] | 11.6 -log[mol/m^2s] | YES |  |
| C/C(=N\Nc1nc2ccccc2n1C)c1ccccn1 [C9, (E)-1-Methyl-2-(2-(1-(pyridin-2-yl)ethylidene)hydrazinyl)-1H-benzo[d]imidazole] | 11.6 -log[mol/m^2s] | YES | Aqueous solubility [1]: low aqueous solubility; hERG inhibition, in words (Human hERG): strong hERG inhibition |
| C/C(=N\NC(=S)N1CCC1)c1cnccn1 [A10, (E)-N′-(1-(Pyrazin-2-yl)ethylidene)azetidine-1-carbothiohydrazide] | 11.8 -log[mol/m^2s] | YES | EC50 (TOV-112D (p53^R175H)): 22 nM |
| C/C(=N\Nc1nc2ccccc2n1CCN1CCOCC1)c1ccccn1 [C42, (E)-4-(2-(2-(2-(1-(Pyridin-2-yl)ethylidene)hydrazineyl)-1H-benzo[d]imidazol-1-yl)ethyl)morpholine HCl] | 11.6 -log[mol/m^2s] | YES | hERG inhibition, in words (Human hERG): strong hERG inhibition; ROS (ROS/ZMC1 ROS) (H1299 cells (p53 null)): 1.0 |
| C/C(=N\NC(=S)N1CCC1)c1cc(N(C)C)ccn1 [A14, (E)-N′-(1-(4-(Dimethylamino)pyridin-2-yl)ethylidene)azetidine-1-carbothiohydrazide] | 12.5 -log[mol/m^2s] |  |  |
| C/C(=N\Nc1nc2ccccc2s1)c1ccccn1 [C1, (E)-2-(2-(1-(Pyridin-2-yl)ethylidene)hydrazinyl)benzo[d]thiazole] | 11.6 -log[mol/m^2s] | induced a wild-type conformational change | Activity against the norepinephrine transporter, in words [3]: showed activity; Aqueous solubility [1]: low aqueous solubility; Tumor growth inhibition of p53^R273H tumors [4]: did not inhibit the tumor growth; Cell kill in p53 wild type and p53 null cell lines [2]: almost no cell kill; Refolding p53^R175H → wild type (p53^R175H; listed as Cl): YES; Papp at 90 min, 5 μM (Caco-2 permeability): 4.4 ± 0.1 ×10⁻⁶ cm/s; Activity against the sodium channel, in words [5]: showed activity; Well tolerated dose without significant weight loss [6]: up to 30 mg/kg |
| C/C(=N\Nc1nc2ccccc2n1CCN1CCC(F)(F)C1)c1ccccn1 [C85, (E)-1-(2-(3,3-Difluoropyrrolidin-1-yl)ethyl)-2-(2-(1-(pyridin-2-yl)ethylidene)hydrazineyl)-1H-benzo[d]imidazole HCl] | 12.2 -log[mol/m^2s] | could induce a wild-type conformational change and YES | EC50 (TOV-112D cells; light or radiation study, 72 h): 710 nM; EC50 (TOV-112D cells): 570 nM; hERG inhibition, in words (Human hERG): potent hERG inhibition; ROS (ROS/ZMC1 ROS) (H1299 cells (p53 null)): 0.8; Compound remaining ([7]; SGF pH 1–2, 37 °C): > 82%; Compound remaining ([7]; SGF pH 1–2, room temperature): > 92% |
| C/C(=N\Nc1nc2ccccc2n1CCN1CCCC1)c1ccccn1 [C69, (E)-2-(2-(1-(Pyridin-2-yl)ethylidene)hydrazineyl)-1-(2-(pyrrolidin-1-yl)ethyl)-1H-benzo[d]imidazole HCl] | 11.6 -log[mol/m^2s] | YES | Activity against the norepinephrine transporter, in words [3]: showed activity; EC50 (TOV-112D (p53^R175H)): 93 nM; hERG inhibition, in words (Human hERG): strong hERG inhibition; ROS (ROS/ZMC1 ROS) (H1299 cells (p53 null)): 1.2; Activity against the sodium channel, in words [5]: showed activity |
| COC/C(=N\Nc1nc2ccccc2s1)c1ccccn1 [C65, (Z)-2-(2-(2-Methoxy-1-(pyridin-2-yl)ethylidene)hydrazineyl)benzo[d]thiazole] | 11.6 -log[mol/m^2s] | YES |  |
| C/C(=N\Nc1nccn1C)c1ccccn1 [C78, 2-(1-(2-(1-Methyl-1H-imidazol-2-yl)hydrazono)ethyl)pyridine HCl] | 11.8 -log[mol/m^2s] | YES |  |
| C/C(=N\NC(=S)NC1CCN(c2ccccn2)CC1)c1ccccn1 [A4, (E)-2-(1-(Pyridin-2-yl)ethylidene)-N-(1-(pyridin-2-yl)piperidin-4-yl)hydrazine-1-carbothioamide] | 14.5 -log[mol/m^2s] |  |  |
| COCCOc1ccc2nc(N/N=C(\C)c3ccccn3)sc2c1 [C23, (E)-6-(2-Methoxyethoxy)-2-(2-(1-(pyridin-2-yl)ethylidene)hydrazineyl)benzo[d]thiazole AcOH] | 11.6 -log[mol/m^2s] | YES |  |
| C/C(=N\Nc1nc2ccccc2s1)c1cc(OCCO)ccn1 [C61, (E)-2-((2-(1-(2-(Benzo[d]thiazol-2-yl)hydrazineylidene)ethyl)pyridin-4-yl)oxy)ethan-1-ol] | 11.6 -log[mol/m^2s] |  |  |
| C/C(=N\NC(=O)N1CCC1)c1ccccn1 [A6, (E)-N′-(1-(Pyridin-2-yl)ethylidene)azetidine-1-carbohydrazide] | 12.9 -log[mol/m^2s] |  |  |
